Reference: patent US20080064718A1, “INHIBITORS OF PROTEIN TYROSINE KINASE ACTIVITY” (priority 2006, published 2008)

Experiments:
A549 = A549 inhibition of wound healing; assay type: cell-based; conditions: Homo sapiens; A549 cells; read-out: A549 INHIB WND ING IC50 UM
c-Met = molecular target: T1, c-Met (Homo sapiens, UniProt P08581); experiment: c-Met phosphorylation direct ELISA in MKN45 cells; assay type: cell-based; conditions: 3 h treatment
T1 construct: endogenous in cells; host or cells: MKN45 gastric carcinoma cells
Protocol: Alternatively, the following assay is used to determine inhibition of c-Met phosphorylation.
The c-Met receptor is expressed in numerous cancer cell lines derived from tumors of epithelial origin. In MKN45 gastric carcinoma cells the c-Met gene is amplified, resulting in several-fold overexpression of the receptor and its constitutive activation.
Cell treatments: MKN45 cells are seeded into wells of 96-well plates at a density of 3×10^4 cells/well in RPMI medium supplemented with 10% FBS. […] Inhibitors are added to the medium in triplicate wells at the indicated doses.
After an overnight protein binding incubation at 4° C., lysates are aspirated and wells are blocked for 1 h at 37° C. in TBST supplemented with 5% BSA. Plates are incubated with the primary antibodies anti-phospho-Tyrosine (Millipore, 4G10) diluted 1/15000 in TBST supplemented with 5% BSA for 1 h at room temperature. Plates are washed 3 times on a plate washer (SkanWasher, Molecular Devises), and incubated with the reporter antibody […] (Sigma) diluted 1/15000 in TBST supplemented with 5% BSA, for 1 h at room temperature. Plates are washed 3 times with TBST using on a plate washer and subsequently incubated with chemiluminescent substrate solution (ECL, Roche). Luminescence signal is captured on a Polar Star Optima apparatus (BMG LabTech).
Average values of the triplicate samples are used to prepare IC50 curves using a 4-parameter fit model. These curves are calculated using, for example, GraFit 5.0 software. For assay standardization purpose, an internal control is included on each experimental test plate.

[1] = molecular target: recombinant human c-Met/HGF receptor (Homo sapiens, UniProt P08581); experiment: In vitro receptor tyrosine kinase assay, c-Met/HGF receptor (DELFIA)
VEGF receptor KDR = molecular target: T2, VEGF receptor KDR (Homo sapiens, UniProt P35968); experiment: In vitro receptor tyrosine kinase assay, VEGF receptor KDR (DELFIA); assay type: biochemical; conditions: GST-VEGFR2 806-1356, ATP 0.6 uM; read-out: VEGFR IC50
T2 construct: made in house; host or cells: Sf9 cells (Spodoptera frugiperda), recombinant baculovirus
Source text: In the case of VEGF receptor KDR a 1.6-kb cDNA corresponding to the catalytic domain of VEGFR2 or KDR (Genbank accession number AF035121 amino acid 806 to 1356) is cloned into the Pst I site of the pDEST20 Gateway vector (Invitrogen) for the production of a GST-tagged version of that enzyme.
The GST-VEGFR2806-1356 protein is expressed in Sf9 cells (Spodoptera frugiperda) upon infection with recombinant baculovirus construct.
The supernatant is loaded onto a GST-agarose column (Sigma) equilibrated with PBS pH 7.3. Following a four column volume (CV) wash with PBS pH 7.3+1% Triton X-100 and 4 CV wash with buffer B (50 mM Tris pH 8.0, 20% glycerol and 100 mM NaCl), bound proteins are step eluted with 5 CV of buffer B supplemented with 5 mM DTT and 15 mM glutathion. […] Final GST-VEGFR2806-1356 protein preparations concentrations are about 0.7 mg/ml with purity approximating 70%.

DU145 = DU145 scattering; assay type: cell-based; conditions: Homo sapiens, DU-145; DU145 cells; read-out: CMET DU145 SCATT HEAL- IC50 UM

T2 sequence (P35968 806-1356): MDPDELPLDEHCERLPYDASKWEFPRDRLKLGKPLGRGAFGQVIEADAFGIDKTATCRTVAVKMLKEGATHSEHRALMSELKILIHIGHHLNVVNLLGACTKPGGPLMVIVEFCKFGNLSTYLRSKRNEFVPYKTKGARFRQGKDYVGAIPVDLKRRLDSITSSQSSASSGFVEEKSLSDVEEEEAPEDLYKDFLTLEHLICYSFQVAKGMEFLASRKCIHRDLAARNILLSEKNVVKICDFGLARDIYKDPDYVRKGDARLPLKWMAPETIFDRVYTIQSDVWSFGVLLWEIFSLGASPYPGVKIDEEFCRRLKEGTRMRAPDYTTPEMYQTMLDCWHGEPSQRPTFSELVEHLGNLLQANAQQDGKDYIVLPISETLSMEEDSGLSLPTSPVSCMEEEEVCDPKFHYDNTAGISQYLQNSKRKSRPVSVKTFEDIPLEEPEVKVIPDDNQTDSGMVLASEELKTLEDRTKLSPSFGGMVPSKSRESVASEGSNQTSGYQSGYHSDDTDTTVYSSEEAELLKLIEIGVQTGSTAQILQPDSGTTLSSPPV
Chain of recombinant human c-Met/HGF receptor (P08581 1078-1337): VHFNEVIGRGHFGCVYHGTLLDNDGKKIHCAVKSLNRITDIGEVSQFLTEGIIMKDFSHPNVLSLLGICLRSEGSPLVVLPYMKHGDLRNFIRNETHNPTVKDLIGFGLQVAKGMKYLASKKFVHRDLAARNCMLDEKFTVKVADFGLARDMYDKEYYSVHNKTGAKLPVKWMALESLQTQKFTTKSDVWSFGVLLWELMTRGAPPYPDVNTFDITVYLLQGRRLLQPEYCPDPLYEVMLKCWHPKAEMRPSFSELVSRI
T1 sequence (P08581 25-1390): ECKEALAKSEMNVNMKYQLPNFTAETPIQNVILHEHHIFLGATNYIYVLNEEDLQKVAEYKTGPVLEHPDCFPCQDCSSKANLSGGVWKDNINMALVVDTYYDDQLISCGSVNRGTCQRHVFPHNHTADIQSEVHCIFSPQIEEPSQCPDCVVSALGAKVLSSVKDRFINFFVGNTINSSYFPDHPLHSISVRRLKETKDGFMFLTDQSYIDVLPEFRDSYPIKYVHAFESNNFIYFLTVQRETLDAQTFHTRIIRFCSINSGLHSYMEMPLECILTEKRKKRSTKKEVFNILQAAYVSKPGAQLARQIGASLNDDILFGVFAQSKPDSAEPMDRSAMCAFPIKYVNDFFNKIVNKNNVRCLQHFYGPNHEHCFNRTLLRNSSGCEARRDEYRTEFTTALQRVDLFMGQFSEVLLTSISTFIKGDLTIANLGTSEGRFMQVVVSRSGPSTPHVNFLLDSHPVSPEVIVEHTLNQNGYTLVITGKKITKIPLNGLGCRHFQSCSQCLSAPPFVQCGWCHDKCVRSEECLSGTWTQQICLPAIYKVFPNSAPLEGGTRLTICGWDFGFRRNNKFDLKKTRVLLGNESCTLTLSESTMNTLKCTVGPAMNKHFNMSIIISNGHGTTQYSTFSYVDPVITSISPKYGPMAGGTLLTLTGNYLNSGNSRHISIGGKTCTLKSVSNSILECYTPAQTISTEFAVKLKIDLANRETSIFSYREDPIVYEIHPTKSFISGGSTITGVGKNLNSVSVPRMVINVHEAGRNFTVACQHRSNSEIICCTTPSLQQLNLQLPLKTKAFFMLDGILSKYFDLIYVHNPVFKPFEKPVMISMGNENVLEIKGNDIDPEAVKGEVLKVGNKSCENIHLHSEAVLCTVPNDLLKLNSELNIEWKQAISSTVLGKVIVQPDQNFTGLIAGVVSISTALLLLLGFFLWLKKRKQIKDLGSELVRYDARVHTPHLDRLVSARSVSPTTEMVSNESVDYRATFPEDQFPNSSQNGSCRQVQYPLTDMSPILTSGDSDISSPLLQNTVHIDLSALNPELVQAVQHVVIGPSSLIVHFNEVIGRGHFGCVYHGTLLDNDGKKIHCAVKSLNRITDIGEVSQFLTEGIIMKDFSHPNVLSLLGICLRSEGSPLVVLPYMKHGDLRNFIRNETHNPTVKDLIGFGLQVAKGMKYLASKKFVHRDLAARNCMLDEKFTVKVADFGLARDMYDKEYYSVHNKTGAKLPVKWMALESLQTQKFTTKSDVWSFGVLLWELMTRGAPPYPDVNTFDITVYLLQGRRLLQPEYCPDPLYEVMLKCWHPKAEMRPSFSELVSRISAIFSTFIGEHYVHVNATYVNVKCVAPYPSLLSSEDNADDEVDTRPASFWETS

| SMILES | IC50 (A549) [nM] | IC50 (c-Met) [nM] | IC50 [1] [nM] | IC50 (VEGF receptor KDR) [nM] | IC50 (DU145) [nM] |
| --- | --- | --- | --- | --- | --- |
| COC[C@H](C)NCc1cccc(-c2cc3nccc(Oc4ccc(NC(=O)N5CCN(c6ccccc6)C5=O)cc4F)c3s2)c1 | 250 to 500 | < 250 | < 250 | < 250 | 250 to 500 |
| O=C(Nc1ccc(Oc2ccnc3cc(-c4cccc[n+]4[O-])sc23)c(F)c1)N1CCN(c2ccc(F)cc2)C1=O | < 250 | < 250 | < 250 | < 250 | < 250 |
| COCCNCc1cccc(-c2cc3nccc(Oc4ccc(NC(=O)N5CCN(c6ccccc6)C5=O)cc4F)c3s2)c1 | 250 to 500 | < 250 | < 250 | < 250 | < 250 |
| CS(=O)(=O)CCNCc1ccc(-c2cc3nccc(Oc4ccc(NC(=O)N5CCN(c6ccccc6)C5=O)cc4F)c3s2)cc1 | > 1000 | < 250 | < 250 | < 250 | 250 to 500 |
| COC[C@H](C)NCc1ccc(-c2cc3nccc(Oc4ccc(NC(=O)N5CCN(c6ccccc6)C5=O)cc4F)c3s2)cc1 | < 250 | < 250 | < 250 | < 250 | < 250 |
| O=C(Nc1ccc(Oc2ccnc3cc(-c4ccc(CNC5CC5)cc4)sc23)c(F)c1)N1CCN(c2ccccc2)C1=O | 250 to 500 | < 250 | < 250 | < 250 | < 250 |
| O=C(Nc1ccc(Oc2ccnc3cc(-c4cnn(C5CCNCC5)c4)sc23)c(F)c1)N1CCN(c2ccccc2)C1=O | > 1000 | < 250 | < 250 | < 250 | 250 to 500 |
| O=C(NNC(=O)c1ccccc1)Nc1ccc(Oc2ccnc3cc(C4=CCNCC4)sc23)c(F)c1 | > 1000 | > 1000 | 250 to 500 | < 250 | > 1000 |
| O=C(Nc1ccc(Oc2ccnc3cc(-c4ccc(CNCC(F)(F)F)cc4)sc23)c(F)c1)N1CCN(c2ccccc2)C1=O | > 1000 | 500 to 1000 | – | 250 to 500 | > 1000 |
| CN(C)CC(=O)N1CC=C(c2cc3nccc(Oc4ccc(NC(=O)N5CCN(c6ccccc6)C5=O)cc4F)c3s2)CC1 | < 250 | < 250 | < 250 | < 250 | < 250 |
| CN(C)C(=O)c1ccc(-c2cc3nccc(Oc4ccc(NC(=O)N5CCN(c6ccccc6)C5=O)cc4F)c3s2)cc1 | < 250 | < 250 | < 250 | < 250 | 250 to 500 |
| CN(C)CCOC(=O)N1CC=C(c2cc3nccc(Oc4ccc(NC(=O)N5CCN(c6ccccc6)C5=O)cc4F)c3s2)CC1 | 250 to 500 | < 250 | < 250 | < 250 | 250 to 500 |
| CCn1cnc(-c2cc3nccc(Oc4ccc(N(C)C(=O)N5CCN(c6ccccc6)C5=O)cc4F)c3s2)c1 | > 1000 | 500 to 1000 | 500 to 1000 | < 250 | > 1000 |
| CS(=O)(=O)c1ccc(-c2cc3nccc(Oc4ccc(NC(=O)N5CCN(c6ccccc6)C5=O)cc4F)c3s2)cc1 | – | < 250 | 250 to 500 | 250 to 500 | – |
| Cn1ccnc1-c1cc2nccc(Oc3ccc(NC(=O)c4ncc(-c5ccccc5)s4)cc3F)c2s1 | – | – | > 1000 | > 1000 | – |
| Cn1cnc(-c2cc3nccc(Oc4ccc(NC(=O)c5cnn(-c6ccccc6)c5C(F)(F)F)cc4F)c3s2)c1 | 250 to 500 | 500 to 1000 | < 250 | > 1000 | > 1000 |
| Cn1ccnc1-c1cc2nccc(Oc3ccc(NC(=O)c4ccc(-c5ccccc5)cc4F)cc3F)c2s1 | – | – | < 250 | > 1000 | – |
